# Laboratory results reported in US20230146455A1, “TREATMENT OF INFLAMMATORY DISEASES WITH PEPTIDES AND PHARMACEUTICAL COMPOSITIONS” (Yuyu Pharma, Inc., priority 2020, published 2023).
# Where “and” joins values, the source holds several entries; their conditions need not be identical. Equal values may be shown once. Where a SMILES comes first, the peptide text is derived from it. [ ]: non-standard residue; d: D form. Hyp = O=C(O)[C@@H]1C[C@@H](O)CN1
# Test system: CCL4/MIP-1 beta
# Experiment: Example 9 Luminex, LPS hPBMCs: CCL4/MIP-1 beta
# Type: cell-based, human
# Details: for MFI (Bead name: CCL4/MIP-1 beta): dilution 10
# Procedure: Treatment Human PBMCs were pretreated with YY-101, YDE-011 and YDE-043 or reference compound; Xiidra® at various concentration (ranging from 1 nM to 100 uM) for 2 h before stimulation. An equal volume of 0.5% DMSO was used as a vehicle control. Then, the cells were treated with LPS at 5 ug/ml. The supernatants from treated cells were harvested at 24 h and placed in a 96 well for Luminex cytokine & chemokine profiling using a Luminex 200 multiplex assay (Luminex; R&D system, USA).
# The main study arm with triplicate wells per group in a 24-well plate: • 1. Blank • 2. PBMC: 0.5% DMSO • 3. PBMC+LPS (5 ug/ml) • 4. PBMC+YY-101 100 uM • 5. PBMC+YY-101 10 uM • 6. PBMC+YY-101 1 uM • 7. PBMC+YY-101 0.1 uM • 8. PBMC+YY-101 0.01 uM • 9. PBMC+LPS (5 ug/ml)+Xiidra®100 uM • 10. PBMC+LPS (5 ug/ml)+Xiidra® 10 uM • 11. PBMC+LPS (5 ug/ml)+Xiidra® 1 uM • 12. PBMC+LPS (5 ug/ml)+Xiidra®0.1 uM • 13. PBMC+LPS (5 ug/ml)+Xiidra®0.01 uM • 14. PBMC+LPS (5 ug/ml)+Xiidra®0.001 uM • 15. PBMC+LPS (5 ug/ml)+YY-101 100 uM • 16. PBMC+LPS (5 ug/ml)+YY-101 10 uM • 17. PBMC+LPS (5 ug/ml)+YY-101 1 uM • 18. PBMC+LPS (5 ug/ml)+YY-101 0.1 uM • 19. PBMC+LPS (5 ug/ml)+YY-101 0.01 uM • 20. PBMC+LPS (5 ug/ml)+YY-101 0.001 uM • 21. PBMC+LPS (5 ug/ml)+YDE-011 100 uM • 22. PBMC+LPS (5 ug/ml)+YDE-011 10 uM • 23. PBMC+LPS (5 ug/ml)+YDE-011 1 uM • 24. PBMC+LPS (5 ug/ml)+YDE-011 0.1 uM • 25. PBMC+LPS (5 ug/ml)+YDE-011 0.01 uM • 26. PBMC+LPS (5 ug/ml)+YDE-011 0.001 uM • 27. PBMC+LPS (5 ug/ml)+YDE-043 100 uM • 28. PBMC+LPS (5 ug/ml)+YDE-043 10 uM • 29. PBMC+LPS (5 ug/ml)+YDE-043 1 uM • 30. PBMC+LPS (5 ug/ml)+YDE-043 0.1 uM • 31. PBMC+LPS (5 ug/ml)+YDE-043 0.01 uM • 32. PBMC+LPS (5 ug/ml)+YDE-043 0.001 uM
# Multiplex assay was used to measure 30 cytokines and chemokines. The 1:2, 1:10 and 1:200 diluted cell supernatant and serial dilution of the standard were dispensed into a 96 well plate at 50 ul/well. Then, the pre-mixed cocktail of antibody-coated magnetic beads was dispensed at 50 ul/well and incubated at room temperature for 2 h in a horizontal orbital microplate shaker at 800±500 rpm. The beads were washed using a magnetic device to prevent loss. The biotin-antibody was dispensed in 50 ul of each well and incubated at room temperature for 1 h in a shaker at 800±500 rpm. After washing, streptavidin-PE was added at 50 ul/well and incubated at room temperature for 30 min in a shaker under the same conditions. Finally, after washing, wash buffer (100 ul/well) was added to the plate and incubated in a shaker for 2 min. The Luminex™ 200 setting were set according to the manufacturer's protocol. The data was calculated with a standard five-parameter logistic nonlinear regression analysis of the data (xPonent software 4.2, USA). The levels of cytokine/chemokine are normalized to the live cell counts (1×10^5 cells/mL) and presented as concentrations per mL (pg/mL or ng/mL).
# [1] = PBMC + LPS(5 ug/ml), test article 0.001 uM, Mean
# [2] = PBMC + LPS(5 ug/ml), test article 0.001 uM, single replicates
# [3] = PBMC + LPS(5 ug/ml), test article 0.01 uM, Mean
# [4] = PBMC + LPS(5 ug/ml), test article 0.01 uM, single replicates
# [5] = PBMC + LPS(5 ug/ml), test article 0.1 uM, Mean
# [6] = PBMC + LPS(5 ug/ml), test article 0.1 uM, single replicates
# [7] = PBMC + LPS(5 ug/ml), test article 1 uM, Mean
# [8] = PBMC + LPS(5 ug/ml), test article 1 uM, single replicates
# [9] = PBMC + LPS(5 ug/ml), test article 10 uM, Mean
# [10] = PBMC + LPS(5 ug/ml), test article 10 uM, single replicates
# [11] = PBMC + LPS(5 ug/ml), test article 100 uM, Mean
# [12] = PBMC + LPS(5 ug/ml), test article 100 uM, single replicates
# [13] = PBMC without LPS, test article 0.01 uM, Mean
# [14] = PBMC without LPS, test article 0.01 uM, single replicates
# [15] = PBMC without LPS, test article 0.1 uM, Mean
# [16] = PBMC without LPS, test article 0.1 uM, single replicates
# [17] = PBMC without LPS, test article 1 uM, Mean
# [18] = PBMC without LPS, test article 1 uM, single replicates
# [19] = PBMC without LPS, test article 10 uM, Mean
# [20] = PBMC without LPS, test article 10 uM, single replicates
# [21] = PBMC without LPS, test article 100 uM, Mean
# [22] = PBMC without LPS, test article 100 uM, single replicates
smiles,measurement,setting,value
CC(C)C[C@H](NC(=O)CNC(=O)[C@H](CC(=O)O)NC(=O)[C@H](CCC(N)=O)NC(=O)CNC(=O)[C@@H]1C[C@@H](O)CN1)C(=O)N[C@@H](C)C(=O)NCC(=O)N1CCC[C@H]1C(=O)N[C@@H](CCCCN)C(=O)O [YY-101] (H-[Hyp]GQDGLAGPK-OH; N-terminus and C-terminus assumed),LPS-induced CCL4 (in words),"LPS 5 ug/mL 24 hrs, 100 uM to 1 nM",significantly reduced
same,Concentration (CCL4/MIP-1 beta),[1],13975.6 pg/mL
same,conc/live cell (CCL4/MIP-1 beta),[1],2183.3 pg/10^5
same,MFI (Bead name: CCL4/MIP-1 beta),[1],515.8
same,MFI (Bead name: CCL4/MIP-1 beta),[2],551.5 and 527.0 and 469.0
same,Concentration (CCL4/MIP-1 beta),[2],14562.9 pg/mL and 14163.0 pg/mL and 13200.9 pg/mL
same,conc/live cell (CCL4/MIP-1 beta),[2],2554.9 pg/10^5 and 1994.8 pg/10^5 and 2000.1 pg/10^5
same,Concentration (CCL4/MIP-1 beta),[3],15170.0 pg/mL
same,conc/live cell (CCL4/MIP-1 beta),[3],2461.1 pg/10^5
same,MFI (Bead name: CCL4/MIP-1 beta),[3],589.2
same,MFI (Bead name: CCL4/MIP-1 beta),[4],611.0 and 596.5 and 560.0
same,Concentration (CCL4/MIP-1 beta),[4],15520.6 pg/mL and 15288.8 pg/mL and 14700.8 pg/mL
same,conc/live cell (CCL4/MIP-1 beta),[4],2425.1 pg/10^5 and 2548.1 pg/10^5 and 2410.0 pg/10^5
same,Concentration (CCL4/MIP-1 beta),[5],15088.0 pg/mL
same,conc/live cell (CCL4/MIP-1 beta),[5],2590.9 pg/10^5
same,MFI (Bead name: CCL4/MIP-1 beta),[5],584.0
same,MFI (Bead name: CCL4/MIP-1 beta),[6],576.0 and 592.0 and 584.0
same,Concentration (CCL4/MIP-1 beta),[6],14959.4 pg/mL and 15216.6 pg/mL and 15088.1 pg/mL
same,conc/live cell (CCL4/MIP-1 beta),[6],2412.8 pg/10^5 and 2926.3 pg/10^5 and 2433.6 pg/10^5
same,Concentration (CCL4/MIP-1 beta),[7],14794.1 pg/mL
same,conc/live cell (CCL4/MIP-1 beta),[7],2273.3 pg/10^5
same,MFI (Bead name: CCL4/MIP-1 beta),[7],565.8
same,MFI (Bead name: CCL4/MIP-1 beta),[8],594.0 and 556.5 and 547.0
same,Concentration (CCL4/MIP-1 beta),[8],15248.7 pg/mL and 14644.0 pg/mL and 14489.7 pg/mL
same,conc/live cell (CCL4/MIP-1 beta),[8],2420.4 pg/10^5 and 2062.5 pg/10^5 and 2337.0 pg/10^5
same,Concentration (CCL4/MIP-1 beta),[9],15474.9 pg/mL
same,conc/live cell (CCL4/MIP-1 beta),[9],2351.1 pg/10^5
same,MFI (Bead name: CCL4/MIP-1 beta),[9],608.3
same,MFI (Bead name: CCL4/MIP-1 beta),[10],614.0 and 651.0 and 560.0
same,Concentration (CCL4/MIP-1 beta),[10],15568.4 pg/mL and 16155.4 pg/mL and 14700.8 pg/mL
same,conc/live cell (CCL4/MIP-1 beta),[10],2594.7 pg/10^5 and 2524.3 pg/10^5 and 1934.3 pg/10^5
same,Concentration (CCL4/MIP-1 beta),[11],13712.9 pg/mL
same,conc/live cell (CCL4/MIP-1 beta),[11],2374.0 pg/10^5
same,MFI (Bead name: CCL4/MIP-1 beta),[11],499.8
same,MFI (Bead name: CCL4/MIP-1 beta),[12],537.0 and 474.5 and 488.0
same,Concentration (CCL4/MIP-1 beta),[12],14326.7 pg/mL and 13293.2 pg/mL and 13518.7 pg/mL
same,conc/live cell (CCL4/MIP-1 beta),[12],2274.1 pg/10^5 and 2144.1 pg/10^5 and 2703.7 pg/10^5
same,conc/live cell (CCL4/MIP-1 beta),[13],0.0 pg/10^5
same,MFI (Bead name: CCL4/MIP-1 beta),[13],0.0
same,MFI (Bead name: CCL4/MIP-1 beta),[14],0.0
same,conc/live cell (CCL4/MIP-1 beta),[14],0.0 pg/10^5
same,conc/live cell (CCL4/MIP-1 beta),[15],0.0 pg/10^5
same,MFI (Bead name: CCL4/MIP-1 beta),[15],0.0
same,MFI (Bead name: CCL4/MIP-1 beta),[16],0.0
same,conc/live cell (CCL4/MIP-1 beta),[16],0.0 pg/10^5
same,conc/live cell (CCL4/MIP-1 beta),[17],0.0 pg/10^5
same,MFI (Bead name: CCL4/MIP-1 beta),[17],−0.8
same,MFI (Bead name: CCL4/MIP-1 beta),[18],−1.0 and −0.5
same,conc/live cell (CCL4/MIP-1 beta),[18],0.0 pg/10^5
same,Concentration (CCL4/MIP-1 beta),[19],1948.5 pg/mL
same,conc/live cell (CCL4/MIP-1 beta),[19],152.2 pg/10^5
same,MFI (Bead name: CCL4/MIP-1 beta),[19],5.5
same,MFI (Bead name: CCL4/MIP-1 beta),[20],10.0 and 1.0
same,Concentration (CCL4/MIP-1 beta),[20],1948.5 pg/mL
same,conc/live cell (CCL4/MIP-1 beta),[20],304.4 pg/10^5 and 0.0 pg/10^5
same,Concentration (CCL4/MIP-1 beta),[21],1360.7 pg/mL
same,conc/live cell (CCL4/MIP-1 beta),[21],207.4 pg/10^5
same,MFI (Bead name: CCL4/MIP-1 beta),[21],6.5
same,MFI (Bead name: CCL4/MIP-1 beta),[22],10.0 and 3.0
same,Concentration (CCL4/MIP-1 beta),[22],1948.5 pg/mL and 772.9 pg/mL
same,conc/live cell (CCL4/MIP-1 beta),[22],304.4 pg/10^5 and 110.4 pg/10^5
